Assay: in vitro
Conditions: human, hela cells, % viability

| Structure (SMILES) | viability at 28.5 h, 10 µM [%] | viability at 28.5 h, 10 µM (bulk resorufin, single well) [%] |
| --- | --- | --- |
| CC(=O)Nc1ccc(C2=NC3SC(c4ccc(NC(C)=O)cc4)=NC3S2)cc1 (stereo not shown) [CBK019799] | 103 | – |
| O=S(=O)(NCCn1c(-c2ccncc2)nc2ccccc21)c1ccccc1 [CBK288578] | 87.2 | – |
| Cc1noc(C)c1CN1CCN(CC(CC(=O)Nc2ccccc2)C(=O)O)CC1 (stereo not shown) [CBK286858] | 83.2 | – |
| CCC(=O)Nc1ccc(-c2csc(N3CCC(C)CC3)n2)cc1 [CBK306490] | 111 | – |
| COc1ccc(S(=O)(=O)NC(C)C(=O)NCc2ccncc2)cc1 (stereo not shown) [CBK269441] | 107 | – |
| NC(=O)c1ccc(-n2cc(-c3ccc(Cl)cc3)nn2)cc1 [CBK113046] | 93.4 | – |
| COc1ccc(Sc2nc3ccccc3nc2C(F)(F)F)cc1OC [CBK093779] | 85 | – |
| COc1ccc(CC(=O)N2CCCC2c2cccc(Cc3ccc(F)cc3)n2)cc1 (stereo not shown) [CBK286233] | 89.1 | – |
| O=C(Cn1c(=O)oc2ccccc21)Nc1ccc(S(=O)(=O)Nc2nccs2)cc1 [CBK267686] | 80.2 | – |
| COc1cc(-c2ccc(C(=O)N(C)CCN(C)C)c(N(C)C)n2)cc(OC)c1OC [CBK106076] | 109 | – |
| CC1CCCCN1C(=O)CN1C(=O)N2CCCN=C2c2ccccc21 (stereo not shown) [CBK284393] | 79.8 | – |
| COc1cccc2cc(C(=O)C3=C(O)C(=O)N(CCN4CCOCC4)C3c3ccc(F)cc3)oc12 (stereo not shown) [CBK266414] | 93.3 | – |
| O=C(N/N=C/c1ccccn1)c1n[nH]c2c1CCCC2 [CBK262882] | 90.8 | – |
| CN1CC[C@]2(c3ccc4c(c3)nnn4C)CC[C@@H](NC(=O)Nc3cc(F)cc(C(F)(F)F)c3)C[C@H]12 [CBK067800] | 99.2 | – |
| NCc1ccc(OC2CCNCC2)cc1 [CBK003920T] | 88.7 | – |
| CCC(=O)N1CCC[C@@H]1Cn1nc(-c2cccs2)ccc1=O [CBK282304] | 84.8 | – |
| CCCCN(C)c1c(CC)nc2ccc(C(=O)NC3=NC(=O)CS3)cn12 [CBK145464] | 102 | – |
| Cc1ccc2[nH]c(C)c(CC(=O)N(C)CCN(C)C)c2c1 [CBK282674] | 105 | – |
| O=C(CSCc1nc(O)c2c3c(sc2n1)CCCC3)NC1CCCCC1 [CBK265684] | 83.5 | – |
| O=C(NCc1ccco1)NC(=O)c1ccc(Cl)cc1 [CBK269461] | 95.8 | – |
| OCc1cccc(-c2nccnc2NCC(O)COc2ccccc2)c1 (stereo not shown) [CBK036842] | 94.3 | – |
| CN(c1cc(F)ccc1[N+](=O)[O-])S(=O)(=O)c1ccccc1 [CBK001369] | 97.5 | – |

| Structure (SMILES) | viability at 28.5 h, 10 µM [%] | viability at 28.5 h, 10 µM (bulk resorufin, single well) [%] |
| --- | --- | --- |
| COCCOC(=O)N1CCC(N(C)Cc2ccc(-c3ccc(S(C)(=O)=O)cc3)nc2)CC1 [CBK165258T] | 96.7 | – |
| CCC(Oc1ccccc1F)C(=O)Nc1cc(C)on1 (stereo not shown) [CBK305558] | 98.5 | – |
| Cc1cc(NC(=O)C2CCN(c3ncccc3C#N)CC2)no1 [CBK305689] | 88.3 | – |
| CC1CCc2c(sc(NC(=O)c3cccs3)c2C(=O)N2CCOCC2)C1 (stereo not shown) [CBK307101] | 100 | – |
| Cc1ccc(C(=O)NC[C@H]2O[C@@H](CC(=O)N3CCOCC3)[C@H](O)[C@@H]2O)cc1 [CBK288925] | 85.5 | – |
| O=c1[nH]c2ccccc2n1CCCN1CCC(Oc2cncc(OCC3COc4ccccc4O3)n2)C1 (stereo not shown) [CBK084380] | 94.4 | – |
| OC1(c2ccc(Cl)cc2)CCNCC1 [CBK023044] | 92 | – |
| O=C(NC1CC1)c1nn(Cc2ccc(S(=O)(=O)N3CCCCC3)cc2)c2ccccc12 [CBK047820] | – | 106 |
| N#C/C(=C/c1ccc(Sc2ccc(Cl)cc2)o1)c1ccc(C(=O)O)cc1 [CBK268996] | 89.8 | – |
| CCN(CC)CCOc1c(C)cc(Cl)cc1C [CBK262219] | 97 | – |
| O=C1N[C@@H]2CCN(C(=O)C3CC3)[C@@H]2C(=O)N1c1ccc(F)cc1 [CBK289324] | 99.6 | – |
| CCCC/C=C/c1cnc(N)c(-c2ccc(C(=O)NCCO)cc2)n1 [CBK064141] | 106 | – |
| Clc1ccc(SCCCSc2ncccn2)cc1 [CBK266400] | 96.8 | – |
| O=C1NCCNC(=O)C2(C/C=C/COc3ccccc31)CCN(C(=O)c1cncs1)CC2 [CBK292023] | 95.3 | – |
| Cn1nccc1CN(Cc1ccc(F)cc1)Cc1cccnc1 [CBK282261] | 101 | – |
| CCOCCCNC(=O)c1cnn2c(C)c(Cc3cccnc3)c(C)nc12 [CBK162152] | 100 | – |
| CC(=O)Nc1cccc(NC(=O)CN(C)S(=O)(=O)c2ccc(F)cc2)c1 [CBK269951] | 90.2 | – |
| CCCCN1CCC2CN(CCCC(c3ccc(F)cc3)c3ccc(F)cc3)CCN2C1=O (stereo not shown) [CBK024880C] | 99.5 | – |
| CSC1=Nc2cc(Cl)ccc2SCC1 [CBK019829] | 98.1 | – |
| O=C(CCC1CCCO1)NC(Cc1ccsc1)c1cccnc1 (stereo not shown) [CBK285159] | 87.6 | – |
| CN(CC(=O)Nc1ccccc1-c1ccccc1)S(=O)(=O)c1ccc2ccccc2c1 [CBK267432] | 104 | – |
| CC(=O)Nc1cccc(-c2ccc(Nc3cccc(N(C)C)c3)nc2)c1 [CBK036829] | 97.9 | – |

| Structure (SMILES) | viability at 28.5 h, 10 µM [%] | viability at 28.5 h, 10 µM (bulk resorufin, single well) [%] |
| --- | --- | --- |
| Cc1nn(C)c(N2CCNCC2)c1NC(=O)CN(C)C(=O)c1ccccc1 [CBK050255T] | 109 | – |
| c1ccc(CN2CCN(c3cncc(-c4cccs4)n3)CC2)nc1 [CBK065734] | 98.1 | – |
| O=C(O)C(CC1COc2ccccc2O1)C(=O)O (stereo not shown) [CBK276280] | 89.6 | – |
| O=C1N=C(NC2CCCCCC2)SC1C(=O)N1CCCCCC1 (stereo not shown) [CBK085513] | 93.1 | – |
| O=c1[nH]c2ncc(-c3cccnc3)nc2n1Cc1ccc(Cl)cc1 [CBK064561] | 98.3 | – |
| Nc1c(C(=O)NCC2CCCO2)c2nc3ccccc3nc2n1C1CCCC1 (stereo not shown) [CBK269217] | 112 | – |
| CN1CCN(CCC(=O)N/N=C/c2cccc(Br)c2)CC1 [CBK261496] | 96.6 | – |
| O=C1c2ccccc2C(Nc2cccnc2)N1c1ccccn1 (stereo not shown) [CBK113239] | 80.5 | – |
| c1ccc2c(c1)OCC(COc1ccnc(N3CCCN(CCN4CCOCC4)CC3)n1)O2 (stereo not shown) [CBK083976] | 116 | – |
| Cc1cccn2c(CN3CCCC(O)C3)c(C(=O)N3CCOCC3)nc12 (stereo not shown) [CBK306545] | 72.5 | – |
| CC(=O)N1c2ccc(C(O)CN3CCSCC3)cc2CC1C (stereo not shown) [CBK283143] | 98.9 | – |
| O=C(Nc1ccccc1)c1cccc(S(=O)(=O)NCc2ccncc2)c1 [CBK269980] | 102 | – |
| Clc1ccc(SCc2cccc(CSc3ccc(Cl)c(Cl)c3)n2)cc1Cl [CBK223404] | 86.3 | – |
| Cc1ncsc1CCC(=O)NCC1CCN(c2ccccc2F)C1 (stereo not shown) [CBK304675] | 96.5 | – |
| CS(=O)(=O)Nc1ccc(CNC(=O)c2ccc3[nH]ccc3c2)cc1 [CBK161747] | 93.5 | – |
| Cc1noc(C)c1CCC(=O)N1CC[C@H]2NC(=O)c3ccccc3OCCCCC[C@H]2C1 [CBK292036] | 96.5 | – |
| NS(=O)(=O)c1ccc(CCNC(=O)/C=C/c2ccc([N+](=O)[O-])cc2)cc1 [CBK265683] | 110 | – |
| O=C(c1ccoc1)N1CCC2(CCCN(CCCn3c(=O)[nH]c4ccccc43)C2)C1 (stereo not shown) [CBK132818] | 90.1 | – |
| COC(=O)c1ccc(C)c(NS(=O)(=O)c2cc(Cl)ccc2Cl)c1 [CBK077971] | 90.9 | – |
| O=C(/C=C\c1ccccc1)CC1(O)C(=O)N(Cc2cccc3ccccc23)c2ccccc21 (stereo not shown) [CBK264761] | 96.7 | – |
| Cn1cc(CN2CCC(c3cncc(-c4cccc(C(F)(F)F)c4)n3)CC2)cn1 [CBK286150] | 78.4 | – |
| Cc1cccc(N2CCN(CCCC(c3ccc(F)cc3)c3ccc(F)cc3)CC2)n1 [CBK025113C] | 93.9 | – |

| Structure (SMILES) | viability at 28.5 h, 10 µM [%] | viability at 28.5 h, 10 µM (bulk resorufin, single well) [%] |
| --- | --- | --- |
| O=C1COc2ccccc2C/C=C/CC2(CCN(CC(=O)N3CCCC3)CC2)CN1 [CBK292126] | 93.7 | – |
| Cn1[nH]c(COC(C)(C)C)c(Cc2c(Cl)cccc2Cl)c1=O [CBK093521] | 99.4 | – |
| CSc1ccc(-c2cnc3nc(N)ccc3c2)cc1 [CBK081169] | 85.2 | – |
| COc1ccc(CNCc2cccc(OC)c2OC)cc1Br [CBK074479] | 113 | – |
| CCOc1cc(/C=C2\N=C(c3ccc(OC)cc3)OC2=O)cc(Br)c1OCC(=O)OC [CBK102552] | 96.3 | – |
| Cc1ccc(Cc2cnc(NC(=O)NC3CCOC(C)(C)C3)s2)cc1F (stereo not shown) [CBK304139] | 92.2 | – |
| Cc1cc2c(cc3c(=O)n(CC(=O)NCC4CC4)nc(C)n32)s1 [CBK284097] | 96.6 | – |
| O=C(c1cscn1)N1CCCC(n2cnc3cc(F)ccc32)C1 (stereo not shown) [CBK284477] | 90.8 | – |
| CCNS(=O)(=O)c1ccc2c(c1)N(Cc1csnn1)CC2 [CBK306161] | 74.3 | – |
| O=C(Nc1cc(Cl)cc(Cl)c1)c1csnn1 [CBK057759] | 88.1 | – |
| Oc1ccc(C2N=C(c3ccccc3)N=C(c3ccccc3)N2)cc1 (stereo not shown) [CBK018755] | 95.4 | – |
| COc1nccc(N2CCC3(CCCN(CC4CCC4)C3=O)C2)c1C#N (stereo not shown) [CBK306861] | 84.3 | – |
| CCN(CC)CCCNC(=O)N1CCN(Cc2ccccc2)CC1 [CBK155655] | 89.8 | – |
| COc1nccnc1OC1CCN(CC(N)=O)CC1 [CBK084248] | 86.7 | – |
| O=C(Nc1cccc(N2CCNCC2)c1)c1cnc2ccccc2c1 [CBK029415T] | 83.2 | – |
| CC(=O)c1ccc(-c2ccc(C(=O)NCC3COc4ccccc4O3)c(NCc3cccnc3)n2)s1 (stereo not shown) [CBK076608] | 97.9 | – |
| C=CCNc1nccnc1-c1cnc(OC)nc1OC [CBK036922] | 91.7 | – |
| O=C1Nc2ccc([N+](=O)[O-])cc2C1(O)N1CCCCC1 (stereo not shown) [CBK262496] | 80.6 | – |
| CN1CCC(Cc2nc(CC3CCCOC3)n(CC(F)(F)F)n2)CC1 (stereo not shown) [CBK306801] | 83.2 | – |
| CCCC12CN3CC(CCC)(CN(C1)C3C(O)C(O)C(O)CO)C2=O (stereo not shown) [CBK265529] | 88.3 | – |
| O=C(CC1CCN(C(=O)CC2CCCCC2)CC1)Nc1ccccc1CN1CCCC1 [CBK286046] | 100 | – |
| O=C(Nc1cccc2[nH]ccc12)c1cccc(F)c1Cl [CBK159638] | 76.4 | – |
